These are literature values, as cited in PMC3401522 (ACS Chemical Biology, 2011).

The structures appear in SMILES notation.

The data set deals with JIP-JNK interaction sites.

As usually defined, the IC50 is the concentration that gives 50% inhibition. For `O=c1[nH]nc(Sc2ncc([N+](=O)[O-])s2)n1-c1ccc2c(c1)OCCO2` [BI-78D3], the IC50 was 500 nM.
